For this assay, the target named is WDR5 (Homo sapiens, UniProt P61964). Description: Competition-based fluorescence polarization anisotropy assay. As to conditions: binding to WDR5; displacement of FITC-labeled small molecule probe (analogous to Example J2 or HCH-25) or peptide probe FITC-AHx-SEEEIDVVSV; pH 6.0; Ki converted from IC50. Put shortly: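 Ki values derive from displacement of either a fluorescent small-molecule probe or a FITC-peptide probe from WDR5, monitored by fluorescence polarization. Assay run at pH 6.0 in 200 mM phosphate with 300 mM NaCl, 0.5 mM TCEP and 0.1% Chaps.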
For orientation: Polarisation of emitted light reports the rotation of a fluorescent probe.
In the case of `CNC(=O)c1cc(C2CC2)cc(NS(=O)(=O)c2cc(Br)ccc2O)c1O` [Example J81, 3-((5-Bromo-2-hydroxyphenyl)sulfonamido)-5-cyclopropyl-2-hydroxy-N-methylbenzamide], the affinity corresponds to a Ki of 750 nM. This lies in the sub-micromolar range. Take `CN(CCO)C(=O)c1cc(C2CC2)cc(NS(=O)(=O)c2cc(Br)ccc2O)c1O` [Example J82, 3-((5-Bromo-2-hydroxyphenyl)sulfonamido)-5-cyclopropyl-2-hydroxy-N-(2-hydroxyethyl)-N-methylbenzamide]: the Ki – broadly, a dissociation constant, usually derived from enzyme kinetics or from competition with a known ligand – is 3760 nM. `COCCN(C)C(=O)c1cc(C2CC2)cc(NS(=O)(=O)c2cc(Br)ccc2O)c1O` [Example J83, 3-((5-Bromo-2-hydroxyphenyl)sulfonamido)-5-cyclopropyl-2-hydroxy-N-(2-methoxyethyl)-N-methylbenzamide] registered a Ki of 6380 nM. This Ki lies about 1.7-fold higher than the previous one. The same measure for `O=C(NCCN1CCOCC1)c1cc(C2CC2)cc(NS(=O)(=O)c2cc(Br)ccc2O)c1O` [Example J84, 3-((5-Bromo-2-hydroxyphenyl)sulfonamido)-5-cyclopropyl-2-hydroxy-N-(2-morpholinoethyl)benzamide]: 1070 nM; for `O=C(c1cc(C2CC2)cc(NS(=O)(=O)c2cc(Br)ccc2O)c1O)N1CCOCC1` [Example J85, 5-Bromo-N-(5-cyclopropyl-2-hydroxy-3-(morpholine-4-carbonyl)phenyl)-2-hydroxybenzenesulfonamide]: 1440 nM. `COCCNC(=O)c1cc(C2CC2)cc(NS(=O)(=O)c2cc(Br)ccc2O)c1O` [Example J86, 3-((5-Bromo-2-hydroxyphenyl)sulfonamido)-5-cyclopropyl-2-hydroxy-N-(2-methoxyethyl)benzamide] returned a Ki of 560 nM. `O=C(NCCO)c1cc(C2CC2)cc(NS(=O)(=O)c2cc(Br)ccc2O)c1O` [Example J87, 3-((5-Bromo-2-hydroxyphenyl)sulfonamido)-5-cyclopropyl-2-hydroxy-N-(2-hydroxyethyl)benzamide] displayed a Ki of 590 nM. The same measure for `COCCCNC(=O)c1cc(C2CC2)cc(NS(=O)(=O)c2cc(Br)ccc2O)c1O` [Example J88, 3-((5-Bromo-2-hydroxyphenyl)sulfonamido)-5-cyclopropyl-2-hydroxy-N-(3-methoxypropyl)benzamide]: 600 nM; for `CN(C)CCNC(=O)c1cc(C2CC2)cc(NS(=O)(=O)c2cc(Br)ccc2O)c1O` [Example J89]: 1310 nM. As for `O=C(NC1CCOC1)c1cc(C2CC2)cc(NS(=O)(=O)c2cc(Br)ccc2O)c1O` (stereo not drawn) [Example J90, 3-((5-Bromo-2-hydroxyphenyl)sulfonamido)-5-cyclopropyl-2-hydroxy-N-(tetrahydrofuran-3-yl)benzamide], the Ki is 740 nM. `O=C(NCCCO)c1cc(C2CC2)cc(NS(=O)(=O)c2cc(Br)ccc2O)c1O` [Example J91, 3-((5-Bromo-2-hydroxyphenyl)sulfonamido)-5-cyclopropyl-2-hydroxy-N-(3-hydroxypropyl)benzamide] showed a Ki of 940 nM. Compound `CN1CCN(C(=O)c2cc(C3CC3)cc(NS(=O)(=O)c3cc(Br)ccc3O)c2O)CC1` [Example J92, 5-Bromo-N-(5-cyclopropyl-2-hydroxy-3-(4-methylpiperazine-1-carbonyl)phenyl)-2-hydroxybenzenesulfonamide] yielded a Ki of 4440 nM. Compared with the last compound, the Ki is about 4.7-fold higher. `O=C(NC1COC1)c1cc(C2CC2)cc(NS(=O)(=O)c2cc(Br)ccc2O)c1O` [Example J93, 3-((5-Bromo-2-hydroxyphenyl)sulfonamido)-5-cyclopropyl-2-hydroxy-N-(oxetan-3-yl)benzamide] displayed a Ki of 540 nM. On to `NC(=O)c1cc(C2CC2)cc(NS(=O)(=O)c2cc(Br)cc(Cl)c2O)c1O` [Example J94, 3-((5-Bromo-3-chloro-2-hydroxyphenyl)sulfonamido)-5-cyclopropyl-2-hydroxybenzamide], for which the affinity corresponds to a Ki of 400 nM. In the case of `CNC(=O)c1cc(C2CC2)cc(NS(=O)(=O)c2cc(Br)cc(Cl)c2O)c1O` [Example J95, 3-((5-Bromo-3-chloro-2-hydroxyphenyl)sulfonamido)-5-cyclopropyl-2-hydroxy-N-methylbenzamide], the affinity, expressed as Ki, was 390 nM. This Ki and that of the compound before are within 1.5-fold of each other. Regarding `COCCNC(=O)c1cc(C2CC2)cc(NS(=O)(=O)c2cc(Br)cc(Cl)c2O)c1O` [Example J96, 3-((5-Bromo-3-chloro-2-hydroxyphenyl)sulfonamido)-5-cyclopropyl-2-hydroxy-N-(2-methoxyethyl)benzamide], the affinity corresponds to a Ki of 610 nM.

`O=C(N[C@H]1CCOC1)c1cc(C2CC2)cc(NS(=O)(=O)c2cc(Br)cc(Cl)c2O)c1O` [Example J97, (S)-3-((5-Bromo-3-chloro-2-hydroxyphenyl)sulfonamido)-5-cyclopropyl-2-hydroxy-N-(tetrahydrofuran-3-yl)benzamide] displayed a Ki of 140 nM. The same measure for `CNC(=O)c1cc(C2CC2)cc(NS(=O)(=O)c2cc(Br)cc(F)c2O)c1O` [Example J98, 3-((5-Bromo-3-fluoro-2-hydroxyphenyl)sulfonamido)-5-cyclopropyl-2-hydroxy-N-methylbenzamide]: 2320 nM; for `COCCNC(=O)c1cc(C2CC2)cc(NS(=O)(=O)c2cc(Br)cc(F)c2O)c1O` [Example J99, 3-((5-Bromo-3-fluoro-2-hydroxyphenyl)sulfonamido)-5-cyclopropyl-2-hydroxy-N-(2-methoxyethyl)benzamide]: 3720 nM; for `NC(=O)c1cc(C2CC2)cc(NS(=O)(=O)c2cc(Br)cc([N+](=O)[O-])c2O)c1O` [Example J104, 3-((5-Bromo-2-hydroxy-3-nitrophenyl)sulfonamido)-5-cyclopropyl-2-hydroxybenzamide]: 610 nM. The compound `COc1cc(Cl)c(Br)cc1S(=O)(=O)Nc1cc(C2CC2)cc(C(N)=O)c1O` [Example J105, 3-((5-Bromo-4-chloro-2-methoxyphenyl)sulfonamido)-5-cyclopropyl-2-hydroxybenzamide] came in with a Ki of 13000 nM. This Ki is about 21-fold higher than that of the compound before. Consider `COc1cc(F)c(Br)cc1S(=O)(=O)Nc1cc(C2CC2)cc(C(N)=O)c1O` [Example J106, 3-((5-Bromo-4-fluoro-2-methoxyphenyl)sulfonamido)-5-cyclopropyl-2-hydroxybenzamide], for which the affinity, expressed as Ki, was 1530 nM. On to `O=C(O)c1cc(F)cc(NS(=O)(=O)c2cc(Br)ccc2O)c1O` [Example J107, 3-((5-Bromo-2-hydroxyphenyl)sulfonamido)-5-fluoro-2-hydroxybenzoic acid], for which the affinity corresponds to a Ki of 1480 nM. This Ki and that of the compound before are within 1.5-fold of each other. The compound `NC(=O)c1cc(F)cc(NS(=O)(=O)c2cc(Br)ccc2O)c1O` [Example J108, 3-((5-Bromo-2-hydroxyphenyl)sulfonamido)-5-fluoro-2-hydroxybenzamide] had a Ki of 2240 nM. In the case of `CNC(=O)c1cc(F)cc(NS(=O)(=O)c2cc(Br)ccc2O)c1O` [Example J109, 3-((5-Bromo-2-hydroxyphenyl)sulfonamido)-5-fluoro-2-hydroxy-N-methylbenzamide], the Ki stood at 3470 nM. On to `COCCNC(=O)c1cc(F)cc(NS(=O)(=O)c2cc(Br)ccc2O)c1O` [Example J110, 3-((5-Bromo-2-hydroxyphenyl)sulfonamido)-5-fluoro-2-hydroxy-N-(2-methoxyethyl)benzamide], for which the affinity corresponds to a Ki of 2260 nM. Against the preceding compound, the Ki is about 1.5-fold lower. The compound `O=C(NCCO)c1cc(F)cc(NS(=O)(=O)c2cc(Br)ccc2O)c1O` [Example J111, 3-((5-Bromo-2-hydroxyphenyl)sulfonamido)-5-fluoro-2-hydroxy-N-(2-hydroxyethyl)benzamide] gave a Ki of 2930 nM. In the case of `O=C(O)c1cc(C2CC2)cc(NS(=O)(=O)c2cc(Br)ccc2O)c1F` [Example J112, 3-((5-Bromo-2-hydroxyphenyl)sulfonamido)-5-cyclopropyl-2-fluorobenzoic acid], the Ki was determined as 780 nM. As for `O=C(O)c1cc(C2CC2)cc(NS(=O)(=O)c2cc(Br)cc3cccnc23)c1F` [Example J113, 3-((6-Bromoquinoline)-8-sulfonamido)-5-cyclopropyl-2-fluorobenzoic acid], the figure is 1710 nM. Take `O=C(O)c1cc(NS(=O)(=O)c2cc(Br)ccc2O)cc(C2CC2)c1F` [Example J114, 5-((5-Bromo-2-hydroxyphenyl)sulfonamido)-3-cyclopropyl-2-fluorobenzoic acid]: the Ki was determined as 520 nM. The compound `O=C(O)c1c(O)c(NS(=O)(=O)c2cc(Br)ccc2O)cc(C2CC2)c1F` [Example J117, 3-((5-Bromo-2-hydroxyphenyl)sulfonamido)-5-cyclopropyl-6-fluoro-2-hydroxybenzoic acid] returned a Ki of 30 nM. This Ki is about 17-fold lower than that of the compound before. Take `O=C(O)c1c(O)c(NS(=O)(=O)c2cc(Br)cc(Cl)c2O)cc(C2CC2)c1F` [Example J118, 3-((5-Bromo-3-chloro-2-hydroxyphenyl)sulfonamido)-5-cyclopropyl-6-fluoro-2-hydroxybenzoic acid]: affinity was put at a Ki of 350 nM. Against the preceding compound, the Ki is about 12-fold higher. The same measure for `O=C(O)c1c(O)c(NS(=O)(=O)c2cc(Br)cc(F)c2O)cc(C2CC2)c1F` [Example J119, 3-((5-Bromo-3-fluoro-2-hydroxyphenyl)sulfonamido)-5-cyclopropyl-6-fluoro-2-hydroxybenzoic acid]: 130 nM. Consider `NC(=O)c1c(O)c(NS(=O)(=O)c2cc(Br)ccc2O)cc(C2CC2)c1F` [Example J123, 3-((5-Bromo-2-hydroxyphenyl)sulfonamido)-5-cyclopropyl-6-fluoro-2-hydroxybenzamide], for which the affinity, expressed as Ki, was 360 nM. `CNC(=O)c1c(O)c(NS(=O)(=O)c2cc(Br)ccc2O)cc(C2CC2)c1F` [Example J124, 3-((5-Bromo-2-hydroxyphenyl)sulfonamido)-5-cyclopropyl-6-fluoro-2-hydroxy-N-methylbenzamide] returned a Ki of 280 nM. The same measure for `O=C(NCCN1CCOCC1)c1c(O)c(NS(=O)(=O)c2cc(Br)ccc2O)cc(C2CC2)c1F` [Example J125, 3-((5-Bromo-2-hydroxyphenyl)sulfonamido)-5-cyclopropyl-6-fluoro-2-hydroxy-N-(2-morpholinoethyl)benzamide]: 1320 nM.

The record behind these values is patent US12398097B2, “WDR5-MYC inhibitors” (Vanderbilt University, priority 2019, dated 2025).
